This experiment is described as follows: Test 4: Inhibition of Cellular Release of Amyloid Peptide 1-40. Conditions: Cricetulus griseus, CHO, 24 h; read-out: Amyloid-β1-40 release IC50. Type of experiment: cell-based, Chinese hamster. As to the method: Chinese hamster ovary cells are transfected with the human gene for amyloid precursor protein. The cells are plated at a density of 8000 cells/well into 96-well microtiter plates and cultivated for 24 hours in DMEM cell culture medium containing 10% FCS. The test compound is added to the cells at various concentrations, and the cells are cultivated for 24 hours in the presence of the test compound.

As a reminder, the IC50 is the concentration needed to halve the response being measured. As to `COc1cnc(C(=O)Nc2ccc(F)c([C@]3(C)CO[C@@](C)(C(F)(F)F)C(N)=N3)n2)c(C)c1` [Example 25, 5-Methoxy-3-methyl-pyridine-2-carboxylic acid [6-((3R,6R)-5-amino-3,6-dimethyl-6-trifluoromethyl-3,6-dihydro-2H-[1,4]oxazin-3-yl)-5-fluoro-pyridin-2-yl]amide], the IC50 was 76 nM.

As to `C[C@]1(c2cccc(NC(=O)c3ccc(C#N)cn3)n2)CO[C@@](C)(C(F)(F)F)C(N)=N1` [Example 9, 5-Cyano-pyridine-2-carboxylic acid [6-((3S,6R)-5-amino-3,6-dimethyl-6-trifluoromethyl-3,6-dihydro-2H-[1,4]oxazin-3-yl)-pyridin-2-yl]-amide], the IC50 came to 1900 nM.

For `Cc1cc(C#N)cnc1C(=O)Nc1cc([C@]2(C)COC(CF)(CF)C(N)=N2)c(F)cn1` [Example 37, 5-Cyano-3-methyl-pyridine-2-carboxylic acid [4-((R)-5-amino-6,6-bis-fluoromethyl-3-methyl-3,6-dihydro-2H-[1,4]oxazin-3-yl)-5-fluoro-pyridin-2-yl]-amide], the IC50 was determined as 83 nM.

As to `N#Cc1cnc(C(=O)Nc2ccc(F)c([C@]3(C(F)F)COCC(N)=N3)n2)c(Cl)c1` [Example 40, 3-Chloro-5-cyano-pyridine-2-carboxylic acid [6-((R)-5-amino-3-difluoromethyl-3,6-dihydro-2H-[1,4]oxazin-3-yl)-5-fluoro-pyridin-2-yl]-amide], the IC50 amounted to 12 nM.

With `Cc1cc(OC(F)F)cnc1C(=O)Nc1ccc(F)c([C@]2(C)CO[C@@](C)(C(F)(F)F)C(N)=N2)n1` [Example 29, 5-Difluoromethoxy-3-methyl-pyridine-2-carboxylic acid [6-((3R,6R)-5-amino-3,6-dimethyl-6-trifluoromethyl-3,6-dihydro-2H-[1,4]oxazin-3-yl)-5-fluoro-pyridin-2-yl]amide], the IC50 turned out to be 24 nM.

Consider `Cc1cc(C#N)cnc1C(=O)Nc1cccc([C@]2(C)CO[C@@](C)(C(F)(F)F)C(N)=N2)n1` [Example 8, 5-Cyano-3-methyl-pyridine-2-carboxylic acid [6-((3R,6R)-5-amino-3,6-dimethyl-6-trifluoro-methyl-3,6-dihydro-2H-[1,4]oxazin-3-yl)-pyridin-2-yl]-amide], for which the IC50 was 6 nM.

As to `C[C@@]1(c2cc(NC(=O)c3ncc(C#N)cc3Cl)ncc2F)CO[C@@](C)(C(F)(F)F)C(N)=N1` [Example 35, 3-Chloro-5-cyano-pyridine-2-carboxylic acid [4-((3R,6R)-5-amino-3,6-dimethyl-6-trifluoromethyl-3,6-dihydro-2H-[1,4]oxazin-3-yl)-5-fluoro-pyridin-2-yl]-amide], the IC50 amounted to 140 nM.

`C[C@@]1(c2cccc(NC(=O)c3ccc(Br)cn3)n2)COCC(N)=N1` [Example 1, 5-Bromo-pyridine-2-carboxylic acid [6-((R)-5-amino-3-methyl-3,6-dihydro-2H-[1,4]-oxazin-3-yl)-pyridin-2-yl]-amide]: the IC50 was determined as 41 nM.

Consider `C[C@@]1(c2cccc(NC(=O)c3ccc(C#N)cn3)n2)CO[C@@](C)(C(F)(F)F)C(N)=N1` [Example 10, 5-Cyano-pyridine-2-carboxylic acid [6-((3R,6R)-5-amino-3,6-dimethyl-6-trifluoromethyl-3,6-dihydro-2H-[1,4]oxazin-3-yl)-pyridin-2-yl]-amide], for which the IC50 was 17 nM.

As to `CC1(c2cccc(NC(=O)c3ccc(Br)cn3)n2)COCC(N)=N1` (racemic) [Example 2, 5-Bromo-pyridine-2-carboxylic acid [6-(5-amino-3-methyl-3,6-dihydro-2H-[1,4]-oxazin-3-yl)-pyridin-2-yl]-amide], the IC50 turned out to be 58 nM.

With `C[C@@]1(c2nc(NC(=O)c3ncc(OCCCF)nc3N)ccc2F)CO[C@@](C)(C(F)(F)F)C(N)=N1` [Example 42, 3-Amino-5-(3-fluoro-propoxy)-pyrazine-2-carboxylic acid [6-((3R,6R)-5-amino-3,6-dimethyl-6-trifluoromethyl-3,6-dihydro-2H-[1,4]oxazin-3-yl)-5-fluoro-pyridin-2-yl]amide], the IC50 came to 72 nM.

As for `[2H]c1nc(C(=O)Nc2cccc([C@]3(C)CO[C@@](C)(C(F)(F)F)C(N)=N3)n2)c(C([2H])([2H])[2H])c([2H])c1Cl` [Example 21, 5-Chloro-4,6-dideuterio-3-trideuteriomethyl-pyridine-2-carboxylic acid [6-((3R,6R)-5-amino-3,6-dimethyl-6-trifluoromethyl-3,6-dihydro-2H-[1,4]oxazin-3-yl)-pyridin-2-yl]-amide], the IC50 was 110 nM.

For `C[C@@]1(c2cccc(NC(=O)c3ncc(C#N)cc3Cl)n2)CO[C@@](C)(C(F)(F)F)C(N)=N1` [Example 20, 3-Chloro-5-cyano-pyridine-2-carboxylic acid [6-((3R,6R)-5-amino-3,6-dimethyl-6-trifluoromethyl-3,6-dihydro-2H-[1,4]oxazin-3-yl)-pyridin-2-yl]-amide], the IC50 worked out at 5 nM.

With `Cc1cc(C#N)cnc1C(=O)Nc1ccc(F)c([C@]2(C)CO[C@@](C)(C(F)(F)F)C(N)=N2)n1` [Example 11, 5-Cyano-3-methyl-pyridine-2-carboxylic acid [6-((3R,6R)-5-amino-3,6-dimethyl-6-trifluoromethyl-3,6-dihydro-2H-[1,4]oxazin-3-yl)-5-fluoro-pyridin-2-yl]-amide], the 50% inhibitory concentration (IC50) worked out at 2 nM.

For the compound `C[C@@]1(c2cc(NC(=O)c3ncc(OC(F)F)cc3Cl)ncc2F)CO[C@@](C)(C(F)(F)F)C(N)=N1` [Example 36, 3-Chloro-5-difluoromethoxy-pyridine-2-carboxylic acid [4-((3R,6R)-5-amino-3,6-dimethyl-6-trifluoromethyl-3,6-dihydro-2H-[1,4]oxazin-3-yl)-5-fluoro-pyridin-2-yl]-amide], the half-maximal inhibitory concentration (IC50) was 410 nM.

For `Cc1cc(C#N)cnc1C(=O)Nc1ccc(F)c([C@@]2(C)CO[C@@](C)(C(F)(F)F)C(N)=N2)n1` [Example 12, 5-Cyano-3-methyl-pyridine-2-carboxylic acid [6-((3S,6R)-5-amino-3,6-dimethyl-6-trifluoromethyl-3,6-dihydro-2H-[1,4]oxazin-3-yl)-5-fluoro-pyridin-2-yl]-amide], the IC50 amounted to 280 nM.

With `Cc1cc(OCF)cnc1C(=O)Nc1ccc(F)c([C@]2(C)CO[C@@](C)(C(F)(F)F)C(N)=N2)n1` [Example 32, 5-Fluoromethoxy-3-methyl-pyridine-2-carboxylic acid [6-((3R,6R)-5-amino-3,6-dimethyl-6-trifluoromethyl-3,6-dihydro-2H-[1,4]oxazin-3-yl)-5-fluoro-pyridin-2-yl]amide], the IC50 worked out at 26 nM.

`[2H]c1nc(C(=O)Nc2cccc(C3(CF)COCC(N)=N3)n2)c(C([2H])([2H])[2H])c([2H])c1Cl` (stereo not shown) [Example 6, 5-{6-[(4,6-Dideutero-5-chloro-3-trideuteromethyl-pyridine-2-carbonyl)-amino]-pyridin-2-yl}-5-fluoromethyl-5,6-dihydro-2H-[1,4]oxazin-3-yl-ammonium trifluoro acetate]: the IC50 was 63 nM.

Regarding `C[C@@]1(c2nc(NC(=O)c3nc4ccn(CC(F)F)c4nc3N)ccc2F)CO[C@@](C)(C(F)(F)F)C(N)=N1` [Example 45, 3-Amino-5-(2,2-difluoro-ethyl)-5H-pyrrolo[2,3-b]pyrazine-2-carboxylic acid [6-((3R,6R)-5-amino-3,6-dimethyl-6-trifluoromethyl-3,6-dihydro-2H-[1,4]oxazin-3-yl)-5-fluoro-pyridin-2-yl]amide], the IC50 was found to be 3600 nM.

These data come from patent US10035794B2, “Heterocyclic derivatives and their use in the treatment of neurological disorders” (NOVARTIS AG, priority 2011, dated 2018).
